{"source": "patent US20250230193A1", "about": "“CYCLIC COMPOUND HAVING SELECTIVE KRAS INHIBITORY EFFECT ON HRAS AND NRAS” (CHUGAI SEIYAKU KABUSHIKI KAISHA, priority 2022, published 2025)", "key": {"[1]": {"target": "GDP-bound NRAS wild-type protein (Homo sapiens, UniProt P01111)", "sequence (P01111 whole entry)": "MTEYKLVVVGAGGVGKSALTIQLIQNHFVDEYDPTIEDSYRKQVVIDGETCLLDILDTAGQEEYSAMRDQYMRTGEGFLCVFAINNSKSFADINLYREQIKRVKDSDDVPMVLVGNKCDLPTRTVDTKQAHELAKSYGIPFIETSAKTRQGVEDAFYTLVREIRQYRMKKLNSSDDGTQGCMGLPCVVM", "assay": "Binding to NRAS by surface plasmon resonance (SPR), Single Cycle Kinetics", "conditions": "SPR"}, "[2]": {"target": "GDP-bound HRAS wild-type protein (Homo sapiens, UniProt P01112)", "sequence (P01112 whole entry)": "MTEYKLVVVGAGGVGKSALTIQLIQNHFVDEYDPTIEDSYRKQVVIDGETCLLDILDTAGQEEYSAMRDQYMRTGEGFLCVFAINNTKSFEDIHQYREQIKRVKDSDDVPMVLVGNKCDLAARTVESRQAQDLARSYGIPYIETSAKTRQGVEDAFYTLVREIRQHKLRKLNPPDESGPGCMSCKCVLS", "assay": "Binding to HRAS by surface plasmon resonance (SPR), Single Cycle Kinetics", "conditions": "SPR"}, "[3]": {"conditions": "KD ratio, GDP-bound NRAS wild-type vs GDP-bound KRAS wild-type"}, "[4]": {"conditions": "KD ratio, GDP-bound HRAS wild-type vs GDP-bound KRAS wild-type"}}, "note": "*1 amine or outer side, *2 acyl side, *3 side chain or, on linkers, in order; H or OH if unused. Where a SMILES comes first, the peptide text is derived from it. Bridges are numbered along the chain shown (N, C = ends). [ ]: non-standard residue; d: D form. The star is where a group is joined. hPhe(3-Cl-4-CF3) = N[C@@H](CCc1ccc(C(F)(F)F)c(Cl)c1)C(=O)O; NPrPhe(4-CF3) = CCCN[C@@H](Cc1ccc(C(F)(F)F)cc1)C(=O)O; X50 = C=CCN([C@@H](Cc1ccc(C)cc1)C(=O)[*:2])[*:1]; NMeGly(cPent) = CN[C@H](C(=O)O)C1CCCC1; Hyp = O=C(O)[C@@H]1C[C@@H](O)CN1; NMeD = CN[C@@H](CC(=O)O)C(=O)O; NMeL = CN[C@@H](CC(C)C)C(=O)O; Morpholide = C1CN(*)CCO1; Ac5c = NC1(C(=O)O)CCCC1; NEtG = CCNCC(=O)O; Sar = CNCC(=O)O"}
{"smiles": "CCCCO[C@@H]1C[C@H]2C(=O)NC3(CCC3)C(=O)N(C)[C@@H](C3CCCC3)C(=O)N(C)[C@H](C(=O)N3CCOCC3)CC(=O)N(C)[C@@H](CC(C)C)C(=O)N[C@@H]([C@@H](C)CC)C(=O)N(C)CC(=O)N(C)[C@H]3CCCCCN(C3=O)[C@@H](Cc3ccc(C(F)(F)F)cc3)C(=O)N(C)CC(=O)N[C@@H](CCc3cc(F)c(C(F)(F)F)c(F)c3)C(=O)N2C1", "note": "[PP1004]", "values": [{"measurement": "NRAS/KRAS (ratio of KD value with respect to NRAS to KD value with respect to KRAS)", "setting": "[1]; [3]", "result": "B (a compound having 3 or more and less than 10 is denoted as B)"}, {"measurement": "HRAS/KRAS (ratio of KD value with respect to HRAS to KD value with respect to KRAS)", "setting": "[2]; [4]", "result": "B (a compound having 3 or more and less than 10 is denoted as B)"}]}
{"smiles": "CC[C@H](C)[C@@H]1NC(=O)[C@@H](CC(C)C)N(C)C(=O)C[C@@H](C(=O)N2CCOCC2)N(C)C(=O)[C@H](C2CCCC2)N(C)C(=O)C2(CCCC2)NC(=O)[C@@H]2CCCN2C(=O)[C@H](CCc2cc(F)c(C(F)(F)F)c(F)c2)NC(=O)CN(C)C(=O)[C@H](Cc2ccc(C(F)(F)F)cc2)N2CCCC[C@@H](C2=O)N(C)C(=O)CN(C)C1=O", "note": "[PP0591]", "values": [{"measurement": "NRAS/KRAS (ratio of KD value with respect to GDP-bound NRAS wild-type protein to KD value with respect to KRAS)", "setting": "[1]", "result": "B (a compound having 3 or more and less than 10 is denoted as B)"}, {"measurement": "HRAS/KRAS (ratio of KD value with respect to GDP-bound HRAS wild-type protein to KD value with respect to KRAS)", "setting": "[2]", "result": "B (a compound having 3 or more and less than 10 is denoted as B)"}]}
{"smiles": "CCC[C@@H]1C[C@H]2C(=O)NC3(CCC3)C(=O)N(C)[C@@H](C3CCCC3)C(=O)N(C)[C@H](C(=O)N(C)C)CC(=O)N(C)[C@@H](CC)C(=O)N[C@@H]([C@@H](C)CC)C(=O)N(C)CC(=O)N(C)[C@H]3C/C=C\\CCN(C3=O)[C@@H](Cc3ccc(C)cc3)C(=O)N(C)CC(=O)N[C@@H](CCc3cc(F)c(C(F)(F)F)c(F)c3)C(=O)N2C1", "note": "[PP2233]", "values": [{"measurement": "NRAS/KRAS (ratio of KD value with respect to NRAS to KD value with respect to KRAS)", "setting": "[1]; GDP-bound NRAS wild-type vs GDP-bound KRAS wild-type", "result": "A (a compound having 10 or more and less than 20 is denoted as A)"}, {"measurement": "HRAS/KRAS (ratio of KD value with respect to HRAS to KD value with respect to KRAS)", "setting": "[2]; GDP-bound HRAS wild-type vs GDP-bound KRAS wild-type", "result": "A (a compound having 10 or more and less than 20 is denoted as A)"}]}
{"smiles": "CCC[C@H]1C(=O)N[C@@H]([C@@H](C)CC)C(=O)N(C)CC(=O)N(C)[C@H]2C/C=C\\CCN(C2=O)[C@@H](Cc2ccc(C(F)(F)F)cc2)C(=O)N(C)CC(=O)N[C@@H](CCc2cc(F)c(Cl)c(F)c2)C(=O)N2C[C@H](OCC)C[C@H]2C(=O)NC2(CC(C)(C)C2)C(=O)N(C)[C@@H](C2CCCC2)C(=O)N(C)[C@H](C(=O)N(C)C)CC(=O)N1C", "note": "[PP1758]", "values": [{"measurement": "NRAS/KRAS (ratio of KD value for NRAS to KD value for KRAS)", "setting": "[1]; [3]", "result": "AA (a compound having 20 or more is denoted as AA)"}, {"measurement": "HRAS/KRAS (ratio of KD value for HRAS to KD value for KRAS)", "setting": "[2]; [4]", "result": "A (a compound having 10 or more and less than 20 is denoted as A)"}]}
{"smiles": "CCCN1C(=O)CN(C)C(=O)CN(CC)C(=O)[C@H]([C@@H](C)CC)NC(=O)[C@H](CC(C)C)N(C)C(=O)C[C@@H](C(=O)N(C)C)NC(=O)[C@H](C2CCCC2)N(C)C(=O)C2(CCCC2)NC(=O)[C@@H]2C[C@@H](OCC)CN2C(=O)[C@H](CCc2ccc(C(F)(F)F)c(Cl)c2)NC(=O)CN(C)C(=O)[C@@H]1Cc1ccc(C(F)(F)F)cc1", "note": "[PP0371] ([NMeL]I[NEtG][Sar][NPrPhe(4-CF3)][Sar][hPhe(3-Cl-4-CF3)][Hyp](Et)[Ac5c][NMeGly(cPent)]D-NMe2; lactam N-11)", "values": [{"measurement": "NRAS/KRAS (ratio of KD for GDP-bound NRAS wild-type to KD for KRAS)", "setting": "[1]", "result": "B (a compound having 3 or more and less than 10 is denoted as B)"}, {"measurement": "HRAS/KRAS (ratio of KD for GDP-bound HRAS wild-type to KD for KRAS)", "setting": "[2]", "result": "C (A compound having a KD ratio of 0.1 or more and less than 3 is denoted as C)"}]}
{"smiles": "C=CCN1C(=O)CN(C)C(=O)CN(C)C(=O)[C@H]([C@@H](C)CC)NC(=O)[C@H](CC(C)C)N(C)C(=O)C[C@@H](C(=O)N2CCOCC2)N(C)C(=O)[C@H](C2CCCC2)N(C)C(=O)C2(CCCC2)NC(=O)[C@@H]2CCCN2C(=O)[C@H](CCc2ccc(C(F)(F)F)c(Cl)c2)NC(=O)CN(C)C(=O)[C@@H]1Cc1ccc(C)cc1", "note": "[PP0100] ([NMeL]I[Sar][Sar][X50][Sar][hPhe(3-Cl-4-CF3)]P[Ac5c][NMeGly(cPent)][NMeD]-Morpholide; lactam N-11)", "values": [{"measurement": "NRAS/KRAS (ratio of KD for GDP-bound NRAS wild-type to KD for KRAS)", "setting": "[1]", "result": "B (a compound having 3 or more and less than 10 is denoted as B)"}, {"measurement": "HRAS/KRAS (ratio of KD for GDP-bound HRAS wild-type to KD for KRAS)", "setting": "[2]", "result": "C (A compound having a KD ratio of 0.1 or more and less than 3 is denoted as C)"}]}
{"smiles": "CC[C@H](C)[C@@H]1NC(=O)[C@H](CC(C)C)N(C)C(=O)C[C@@H](C(=O)N2CCOCC2)N(C)C(=O)[C@H](C2CCCC2)N(C)C(=O)C2(CCCC2)NC(=O)[C@@H]2CCCN2C(=O)[C@H](CCc2cc(F)c(C(F)(F)F)c(F)c2)NC(=O)CN(C)C(=O)[C@H](Cc2ccc(C(F)(F)F)cc2)N2CCCCC[C@@H](C2=O)N(C)C(=O)[C@@H]2CCN2C1=O", "note": "[PP0484]", "values": [{"measurement": "NRAS/KRAS (ratio of KD value with respect to GDP-bound NRAS wild-type protein to KD value with respect to KRAS)", "setting": "[1]", "result": "A (a compound having 10 or more and less than 20 is denoted as A)"}, {"measurement": "HRAS/KRAS (ratio of KD value with respect to GDP-bound HRAS wild-type protein to KD value with respect to KRAS)", "setting": "[2]", "result": "B (a compound having 3 or more and less than 10 is denoted as B)"}]}
